Experimental data from US11780843B2, “Compounds active towards nuclear receptors” (NUEVOLUTION A/S, priority 2020, dated 2023).
pIC50: −log10 of the molar value. Where two headings read alike, the source gives them in different places.

What was measured:
[1] = test system: IL-17A secretion in activated PBMCs; test: IL-17A secretion in activated PBMCs; assay type: cell-based; conditions: human PBMCs stimulated with CD3/CD28 Dynabeads for 48 h, absolute IC50
Description: Heparin-treated whole blood from healthy human volunteers was supplied from Hospital de Sant Pau (Barcelona) under the approval of the local ethical review board for human studies (Hospital de Sant Pau, Barcelona, Spain). Human peripheral blood mononuclear cells (PBMCs) were isolated from healthy human volunteers by density gradient centrifugation using the Ficoll-Paque (GE Healthcare). PBMCs were suspended in cell culture medium which consisted on RPMI 1640 medium (Sigma-Aldrich) containing 10% heat inactivated fetal bovine serum (Sigma-Aldrich), 2 mM L-Glutamine (Gibco), 20 mM Hepes (Gibco) and 100 U/mL penicillin (Sigma-Aldrich). Cells were seeded in 384-well plate (DiscoverX), at 40,000 cells per well and cultured 2 h at 37° C. and 5% CO2.
Dose-response curves with compounds were prepared using a 5-fold serial dilution (10 concentrations) in 100% DMSO and further diluted 100-fold in culture medium. Compound solutions (5 μL) were added to the plate containing cells (final DMSO concentration of 0.1%) and incubated for 30 min. Then, cells were stimulated with CD3/CD28 Dynabeads (ThermoFisher, at a bead-to-cell ratio of 1:1) for 48 h at 37° C. and 5% CO2.
IL-17A levels in supernatant were determined by immunoassay using hIL17A QBeads (Intellicyt) and by fluorescence analysis in iQue flow cytometer following the manufacturer's instructions. Inhibition of IL-17A secretion was calculated using the following formula: inhibition=100*[1−[(x−mean basal condition)/(mean top condition—mean basal condition)]]. Activated DMSO-treated cells were used as top condition and activated GNE09461 (10 μM)-treated cells as basal condition.

[2] = target: T1, RORγ ligand-binding domain (Homo sapiens, UniProt P51449); test: RORγ Reporter Assay (Gal4); assay type: cell-based
T1 construct: Gal4 (galactose-responsive transcription factor); expressed in transfected cells; host or cells: HEK293, transient co-transfection
T1 sequence (P51449 269-508 limits assumed): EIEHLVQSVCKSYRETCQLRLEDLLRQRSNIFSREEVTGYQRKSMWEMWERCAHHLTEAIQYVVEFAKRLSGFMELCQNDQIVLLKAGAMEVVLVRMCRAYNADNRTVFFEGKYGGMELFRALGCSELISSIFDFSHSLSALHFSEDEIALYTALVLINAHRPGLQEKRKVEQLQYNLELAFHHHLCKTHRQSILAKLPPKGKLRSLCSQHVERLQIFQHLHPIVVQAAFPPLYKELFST
Method: The HEK293 cell line is co-transfected transiently with two plasmids, one with the RORγ ligand-binding domain fused to galactose-responsive transcription factor (Ga14), and the other with the luciferase reporter gene and Gal binding sites (UAS). This construction allows to determine the RORT activity in a cellular system through the measurement of luminescence.
A suspension of RORγ reporter cells was dispensed into plates and cultured 2 h at 37° C. and 5% CO2. Media formulation consisted in DMEM/F-12 medium (Gibco) supplemented with 10% heat inactivated FBS (Sigma-Aldrich), non-essential aminoacids (Sigma-Aldrich), 2 mM Glutamax (Gibco) and 100 U/mL penicillin (Sigma-Aldrich). Dose-response curves with compounds were prepared in 100% DMSO and further diluted 100-fold in culture medium. Compound solutions were added to the plate containing cells (final DMSO concentration of 0.1%) and incubated for 24 h at 37° C. and 5% CO2. Luciferase detection reagent was added to each well, and relative light units (RLUs) were quantified from each assay well using a plate reading luminometer.
Values of average RLU±S.D. were computed for all treatment sets, followed by the calculations of percent-reduction of RORT activity in response to respective test compound. The following formula was used: activity=100*[1−[[…]] where the theoretical minimum reduction (0% reduction). […] These calculations were performed in excel-fit software using X-204 model curve.

[3] = HEK293 cells, luciferase reporter, 24 h incubation, absolute IC50, read-out: IC50
[4] = Table 5 b, bound estimated from % inhibition at 0.1 and/or 1 uM, read-out: RORγ Gal4 assay (based on % inhibition at 0.1 and/or 1 uM) IC50
[5] = stated as a bound only (Tables 5 a, 6, 7), read-out: Gal4 assay IC50

Row | pIC50 [2, 3] | Structure (SMILES) | pIC50 ([1]; Homo sapiens, PBMC, 48 h) | further results
1 | 8.19 | NC(=O)CN1CC[C@](O)(Cn2ccc3c(N(Cc4ccc(-n5cccn5)cc4)C4CC4)ncnc32)[C@@H](O)C1 (single isomer, unassigned) [Example R5-2-2] |  | pIC50 [1]: 8.13
2 | 8.42 | NC(=O)CN1CC[C@@H](Cn2cc(F)c3c(N(Cc4ccc(C(F)(F)F)cc4)C4CC4)ncnc32)[C@H](O)C1 (single isomer, unassigned) [Example P6-14-1] |  | pIC50 [1]: 7.74
3 | 8.70 | NC(=O)CN1CC[C@](O)(Cn2ccc3c(N(Cc4ccc(C(F)(F)F)cc4)C4CC4)ncnc32)[C@@H](O)C1 (single isomer, unassigned) [Example L5-1-1-2] |  | pIC50 [1]: 8.64
4 | 8.18 | CCN(Cc1ccc(C(F)(F)F)cc1)c1ncnc2c1c(F)cn2C[C@@H]1CCN(CC(N)=O)C[C@H]1O (racemic) [Example P6-21, rac-2-((3R,4R)-4-((4-(ethyl(4-(trifluoromethyl)benzyl)amino)-5-fluoro-7H-pyrrolo[2,3-d]pyrimidin-7-yl)methyl)-3-hydroxypiperidin-1-yl)acetamide] | 7.96 | 
5 | 8.31 | NC(=O)CN1CC[C@](O)(Cn2ccc3c(N(Cc4ccc(-n5cccn5)cc4)C4CC4)ncnc32)[C@@H](O)C1 (single isomer, unassigned) [Example R5-2-1] |  | pIC50 [1]: 7.54
6 | 8.37 | NC(=O)CN1CC[C@](O)(Cn2ccc3c(N(Cc4ccc(-n5cccn5)cc4F)C4CC4)ncnc32)[C@@H](O)C1 (relative stereo) [R5-4″, rel-2-((3R,4R)-4-((4-(cyclopropyl(2-fluoro-4-(1H-pyrazol-1-yl)benzyl)amino)-7H-pyrrolo[2,3-d]pyrimidin-7-yl)methyl)-3,4-dihydroxypiperidin-1-yl)acetamide] | 7.66 | 
7 | 8.31 | CCN(Cc1ccc(C(F)(F)F)cc1)c1ncnc2c1ccn2C[C@@H]1CCN(CC(N)=O)C[C@H]1O (single isomer, unassigned) [Example P6-24-1] |  | pIC50 [1]: 8.00
8 | 8.01 | CC(C)N(Cc1ccc(C(F)(F)F)cc1)c1ncnc2c1c(F)cn2C[C@@H]1CCN(CC(N)=O)C[C@H]1O (racemic) [Example P6-19, rac-2-((3R,4R)-4-((5-fluoro-4-(isopropyl(4-(trifluoromethyl)benzyl)amino)-7H-pyrrolo[2,3-d]pyrimidin-7-yl)methyl)-3-hydroxypiperidin-1-yl)acetamide] | 7.82 | 
9 | 7.89 | CCN(Cc1ccc(-n2cccn2)cc1)c1ncnc2c1ccn2C[C@@]1(O)CCN(CC(N)=O)C[C@@H]1O (relative stereo) [R5-1″, rel-2-((3R,4R)-4-((4-((4-(1H-pyrazol-1-yl)benzyl)(ethyl)amino)-7H-pyrrolo[2,3-d]pyrimidin-7-yl)methyl)-3,4-dihydroxypiperidin-1-yl)acetamide] | 7.10 | 
10 | 8.40 | Cn1cc(-c2ccc(CN(c3ncnc4c3ccn4C[C@@]3(O)CCN(CC(N)=O)C[C@@H]3O)C3CC3)c(F)c2)cn1 (relative stereo) [R5-3″, rel-2-((3R,4R)-4-((4-(cyclopropyl(2-fluoro-4-(1-methyl-1H-pyrazol-4-yl)benzyl)amino)-7H-pyrrolo[2,3-d]pyrimidin-7-yl)methyl)-3,4-dihydroxypiperidin-1-yl)acetamide] | 7.96 | 
11 | 8.70 | NC(=O)C(CO)N1CC[C@@H](Cn2ccc3c(N(Cc4ccc(C(F)(F)F)cc4)C4CC4)ncnc32)[C@H](O)C1 (mixture of isomers) [Example P6-37, rac-2-((3R,4R)-4-((4-(Cyclopropyl(4-(trifluoromethyl)benzyl)amino)-7H-pyrrolo[2,3-d]pyrimidin-7-yl)methyl)-3-hydroxypiperidin-1-yl)-3-hydroxypropanamide] | 8.15 | 
12 | 7.07 | NC(=O)CN1CCC(Cn2cnc3c(N(Cc4ccc(C(F)(F)F)cc4)C4CC4)ncnc32)CC1 [Example P6-06, 2-(4-((6-(cyclopropyl(4-(trifluoromethyl)benzyl)amino)-9H-purin-9-yl)methyl)piperidin-1-yl)acetamide] | 7.32 | 
13 | 8.04 | CCN(Cc1ccc(C(F)(F)F)cc1)c1ncnc2c1ccn2C[C@@H]1CCN(CC(N)=O)C[C@H]1O (single isomer, unassigned) [Example P6-24-2] |  | pIC50 [1]: 6.77
14 | 7.92 | CC(C)N(Cc1ccc(C(F)(F)F)cc1)c1ncnc2c1ccn2C[C@@H]1CCN(CC(N)=O)C[C@H]1O (single isomer, unassigned) [Example P6-25-1] | 6.96 | 
15 | 7.11 | CC(C)N(Cc1ccc(C(F)(F)F)cc1)c1ncnc2c1ncn2C[C@@H]1CCN(CC(N)=O)C[C@H]1O (racemic) [Example P6-22, rac-2-((3R,4R)-3-hydroxy-4-((6-(isopropyl(4-(trifluoromethyl)benzyl)amino)-9H-purin-9-yl)methyl)piperidin-1-yl)acetamide] |  | 
16 | 7.82 | CCN(Cc1ccc(-n2cccn2)cc1F)c1ncnc2c1ccn2C[C@@]1(O)CCN(CC(N)=O)C[C@@H]1O (relative stereo) [R5-5″, Rel-2-((3R,4R)-4-((4-(ethyl(2-fluoro-4-(1H-pyrazol-1-yl)benzyl)amino)-7H-pyrrolo[2,3-d]pyrimidin-7-yl)methyl)-3,4-dihydroxypiperidin-1-yl)acetamide] |  | 
17 | 7.60 | NC(=O)CN1CC[C@@H](Cn2ccc3c(N4CCOC[C@@H]4c4ccc(C(F)(F)F)cc4)ncnc32)[C@H](O)C1 (single isomer, unassigned) [Example P6-01-2, 2-((3R*,4R*)-3-hydroxy-4-((4-((S)-3-(4-(trifluoromethyl)phenyl)morpholino)-7H-pyrrolo[2,3-d]pyrimidin-7-yl)methyl)piperidin-1-yl)acetamide] |  | 
18 | 6.53 | N#Cc1cn(CC2(O)CCN(CC(N)=O)CC2)c2ncnc(N(Cc3ccc(C(F)(F)F)cc3)C3CC3)c12 [Example 3P6-4, 2-(4-((5-cyano-4-(cyclopropyl(4-(trifluoromethyl)benzyl)amino)-7H-pyrrolo[2,3-d]pyrimidin-7-yl)methyl)-4-hydroxypiperidin-1-yl)acetamide] |  | 
19 |  | NC(=O)Cc1ccc(Cn2ccc3c(N4CCOC[C@@H]4c4ccc(C(F)(F)F)cn4)ncnc32)cc1 [Example 328, reference compound] |  | pIC50 [2, 4]: > 7.00; pIC50 [2, 5]: > 7.00
20 | 7.33 | NC(=O)CN1CC[C@@H](Cn2ccc3c(N4CCOC[C@H]4c4cccc(C(F)(F)F)c4)ncnc32)[C@H](O)C1 (single isomer, unassigned) [Example P6-04-1] |  | 
21 |  | NC(=O)Cc1ccc(Cn2ccc3c(N(Cc4ccc(C(F)(F)F)cc4)C4CC4)ncnc32)cc1 [Example I1, reference compound] |  | pIC50 [2, 4]: > 7.00; pIC50 [2, 5]: > 7.00
22 | 8.40 | NC(=O)CN1CCC(Cn2ccc3c(N(Cc4ccc(C(F)(F)F)cc4)C4CC4)ncnc32)C(F)(F)C1 (single isomer, unassigned) [Example K8-1-2] |  | 
23 | 7.12 | NC(=O)CN1CC[C@@H](Cn2ccc3c(N(Cc4ccc(C(F)(F)F)cn4)C4CC4)ncnc32)[C@H](F)C1 (single isomer, unassigned) [Example K8-3-1] |  | 
24 | 7.92 | CCN(Cc1ccc(-c2cnn(C)c2)cc1)c1ncnc2c1ccn2C[C@@H]1CCN(CC(N)=O)C[C@H]1O (relative stereo) [P6-34″, rel-2-((3R,4R)-4-((4-(ethyl(4-(1-methyl-1H-pyrazol-4-yl)benzyl)amino)-7H-pyrrolo[2,3-d]pyrimidin-7-yl)methyl)-3-hydroxypiperidin-1-yl)acetamide] |  | 
